From patent US20260327264A1, “PEPTIDE INHIBITORS OF INTERLEUKIN-23 RECEPTOR” (Zealand Pharma A/S, priority 2023, published 2026)
*1 amine or outer side, *2 acyl side, *3 side chain or, on linkers, in order; H or OH if unused. Where a SMILES comes first, the peptide text is derived from it. Bridges are numbered along the chain shown (N, C = ends). [ ]: non-standard residue; d: D form. 2Nal = N[C@@H](Cc1ccc2ccccc2c1)C(=O)O; AEF = NCCOc1ccc(C[C@H](N)C(=O)O)cc1; X1 = O=C(Cc1ccc(CN[*:1])cc1)[*:2]; 3Pal = N[C@@H](Cc1cccnc1)C(=O)O; αMeL = CC(C)C[C@](C)(N)C(=O)O; CH2COCH2 = O=C(C[*:1])C[*:2]; 3Amb = NCc1cccc(C(=O)O)c1; NMeS = CN[C@@H](CO)C(=O)O; NMeA = CN[C@@H](C)C(=O)O; Dab = NCC[C@H](N)C(=O)O; Aib = CC(C)(N)C(=O)O; βAla = NCCC(=O)O

Legend:
human IL-23R = biological target: T1, human IL-23R (Homo sapiens, UniProt Q5VWK5); assay: Binding assay: displacement of fluorophore (TAMRA)-labelled reference compound from human IL-23R (BRET, Nluc-IL23R fusion protein membranes); settings: for Emax: read-out: % displacement (hIL-23R binding)
T1 construct: Nanoluc luciferase (Nluc); secretion signal encoded by the plasmid (not specified); expressed in transfected cells; crude membranes used in the assay
T1 sequence (Q5VWK5 22-629): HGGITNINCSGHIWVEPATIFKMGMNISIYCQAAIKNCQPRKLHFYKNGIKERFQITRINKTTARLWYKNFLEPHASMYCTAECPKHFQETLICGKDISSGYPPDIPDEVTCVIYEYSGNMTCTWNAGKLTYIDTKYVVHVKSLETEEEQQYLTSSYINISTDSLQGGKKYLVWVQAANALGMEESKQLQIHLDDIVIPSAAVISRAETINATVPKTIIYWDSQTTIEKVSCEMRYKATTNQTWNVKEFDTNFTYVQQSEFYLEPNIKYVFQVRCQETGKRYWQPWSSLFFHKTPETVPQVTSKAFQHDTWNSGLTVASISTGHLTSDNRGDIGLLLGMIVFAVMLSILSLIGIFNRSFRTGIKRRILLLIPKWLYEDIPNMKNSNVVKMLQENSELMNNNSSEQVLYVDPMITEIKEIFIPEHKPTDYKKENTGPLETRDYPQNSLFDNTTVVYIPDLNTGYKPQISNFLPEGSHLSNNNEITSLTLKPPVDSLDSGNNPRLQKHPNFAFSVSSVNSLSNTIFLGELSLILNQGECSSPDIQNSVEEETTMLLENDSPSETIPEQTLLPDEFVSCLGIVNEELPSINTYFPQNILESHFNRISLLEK

[1] = system: IL-23 mediated STAT3 signalling (DB cells); assay: Functional inhibition of IL-23 mediated STAT3 signalling (phospho-STAT3 Tyr705) in DB cells; assay type: cell-based, human; settings: for IC50: Table 3-2, EC80 of hIL-23, read-out: hIL-23 (pSTAT3) antagonist IC50; for hIL-23 (pSTAT3) antagonist % inhibition: Table 3-2, maximal inhibitory response, EC80 of hIL-23
Excerpt: Upon binding of IL-23, the IL-23R forms a heterodimer signalling complex together with IL-12R β1, which through the JAK2/STAT3 pathway promotes phosphorylation of STAT3 to form phospho-STAT3.
For compounds tested in this assay, the response was normalized relative to control values to calculate the IC50 and maximal inhibitory response from a concentration response curve of the compound in presence of a fixed concentration of human IL-23.
The assay procedure was as follows. […] Following preincubation of the DB cells with inhibitor for 15 min in a cell incubator (37° C., 5% CO2), 20 μL of the prepared 3× the EC80 of hIL-23 solution was added to each well and incubated for 90 min in a cell incubator (37° C., 5% CO2). For some wells buffer only or IL-23 only corresponding to the EC80 was added to obtain readouts needed for normalization. To terminate the assay, the plate was spun at 1000 G for 5 min to pellet cells, the supernatant removed using an 8-channel manual pipette, and then added 50 μL/well Complete Lysis Buffer from the MSD STAT3 kit (Cat #K150SVD, Mesoscale) to the cell pellet. To completely lyse cells to release phospho-STAT3 for detection, the plate was shaken for 10 min at room temperature (500 rpm) sealed with aluminium foil and placed at −80° C. for a minimum of 15 min. Detection of the phospho-STAT3 level in the cell lysate from the individual wells was determined using the MSD STAT3 kit (Cat #K150SVD, Mesoscale) and read on a Meso QuickPlex SQ 120 plate reader (Mesoscale).
For data analysis raw data counts from the Meso QuickPlex SQ 120 plate reader were normalized relative to the response by the EC80 of hIL-23 alone (no compound added) and the buffer level.

| Compound | Emax (human IL-23R) [%] | IC50 [1] [nM] | hIL-23 (pSTAT3) antagonist % inhibition [1] [%] | IC50 (human IL-23R) [nM] |
| --- | --- | --- | --- | --- |
| CC(C)C[C@]1(C)NC(=O)[C@H](Cc2ccc3ccccc3c2)NC(=O)[C@H](Cc2ccc(OCCN)cc2)NC(=O)[C@@H]2CSCC(=O)CSC[C@H](NC(=O)[C@H](CO)N(C)C(=O)Cc3ccc(cc3)CNC(=O)CC[C@@H](C(=O)N[C@@H](CCN)C(N)=O)NC1=O)C(=O)N[C@@H](Cc1c[nH]c3ccccc13)C(=O)N[C@@H](CCC(N)=O)C(=O)N2 [Ref 141, [4-Aminomethyl-phenylacetyl](1c)*[N—Me-Ser]C(2a)WQC(2a)[Y(2-aminoethoxy)][2-Nal][2-Me-Leu]E(1c)[Dab]-[NH2], reference compound] ([X1][NMeS]CWQC[AEF][2Nal][αMeL]E[Dab]-NH2; linker 3-6 via CH2COCH2; lactam N-10) | 102 | – | – | – |
| CC(C)C[C@]1(C)NC(=O)[C@H](Cc2ccc3ccccc3c2)NC(=O)[C@H](Cc2ccc(OCCN)cc2)NC(=O)[C@@H]2CCNC(=O)CC[C@H](NC(=O)[C@H](CO)NC(=O)Cc3ccc(cc3)CNC(=O)CC[C@@H](C(=O)NC[C@@H](N[C@@H](Cc3cccnc3)C(N)=O)C(F)(F)F)NC1=O)C(=O)N[C@@H](Cc1c[nH]c3ccccc13)C(=O)N[C@@H](CCC(N)=O)C(=O)N2 [Compound 16, [4-Aminomethyl-phenylacetyl](1c)*SE(2c)WQ[Dab](2c)[Y(2-aminoethoxy)][2-Nal][2-Me-Leu]E(1c)[{d}Gly-CF3][3-(3-Pyridyl)-Ala]-[NH2]] | – | 1.4 | 97 | – |
| CNC(=O)[C@H](Cc1cccnc1)NC(=O)[C@H](COC)NC(=O)[C@@H]1CCC(=O)NCc2ccc(cc2)CC(=O)N[C@@H](C)C(=O)N[C@H]2CCC(=O)NCC[C@H](NC(=O)[C@H](CCC(N)=O)NC(=O)[C@H](Cc3c[nH]c4ccccc34)NC2=O)C(=O)N[C@@H](Cc2ccc(N3CCOCC3)cc2)C(=O)N[C@@H](Cc2ccc3ccccc3c2)C(=O)NC(C)(C)C(=O)N1 [Compound 53, [4-aminomethyl-phenylacetyl](1c)*AE(2c)WQ[Dab](2c)[F(4-morpholine)][2Nal][Aib]E(1c)[Ser(OCH3)][3-(3-Pyridyl)-alanyl]-[NHMe]] | 102 | – | – | 0.23 |
| CC(C)C[C@]1(C)NC(=O)[C@H](Cc2ccc3ccccc3c2)NC(=O)[C@H](Cc2ccc(OCCN)cc2)NC(=O)[C@@H]2CSCC(=O)CSC[C@H](NC(=O)[C@H](CO)NC(=O)c3cccc(c3)CNC(=O)CC[C@@H](C(=O)N[C@@H](CCCNC(=N)N)C(=O)N[C@@H](Cc3cccnc3)C(N)=O)NC1=O)C(=O)N[C@@H](Cc1c[nH]c3ccccc13)C(=O)N[C@@H](CCC(N)=O)C(=O)N2 [Ref 78, [(3-Aminomethyl)benzoyl](1c)*SC(2a)WQC(2a)[Y(2-aminoethoxy)][2-Nal][2-Me-Leu]E(1c)R[3-(3-Pyridyl)-Ala]-[NH2], reference compound] ([3Amb]SCWQC[AEF][2Nal][αMeL]ER[3Pal]-NH2; linker 3-6 via CH2COCH2; lactam N-10) | – | 0.13 | 100 | – |
| CNC(=O)[C@H](Cc1cccnc1)NC(=O)[C@H](CCN)NC(=O)[C@@H]1CCC(=O)NCc2ccc(cc2)CC(=O)N[C@@H](C)C(=O)N[C@H]2CCC(=O)NCC[C@H](NC(=O)[C@H](CCC(N)=O)NC(=O)[C@H](Cc3c[nH]c4ccccc34)NC2=O)C(=O)N[C@@H](Cc2c[nH]c3ccccc23)CC(=O)N[C@@H](Cc2ccc3ccccc3c2)C(=O)NC(C)(C)C(=O)N1 [Compound 45, [4-Aminomethyl-phenylacetyl](1c)*AE(2c)WQ[Dab](2c)[beta-hTrp][2-Nal][Aib]E(1c)[Dab][3-(3-Pyridyl)-Ala]-[NHMe]] | 104 | – | – | – |
| CC(C)C[C@]1(C)NC(=O)[C@H](Cc2ccc3ccccc3c2)NC(=O)[C@H](Cc2ccc(OCCN)cc2)NC(=O)[C@@H]2CSCC(=O)CSC[C@H](NC(=O)[C@H](CO)NC(=O)CCNC(=O)[C@H](Cc3cccnc3)NC(=O)CC[C@@H](C(=O)N[C@H](CCCNC(=N)N)C(N)=O)NC1=O)C(=O)N[C@@H](Cc1c[nH]c3ccccc13)C(=O)N[C@@H](CCC(N)=O)C(=O)N2 [Compound 2, [3-(3-Pyridyl)-Ala](4c)*[3-Aminopropanoy]SC(2a)WQC(2a)[Y(2-aminoethoxy)][2-Nal][2-Me-Leu]E(4c)[{d}R]-[NH2]] ([3Pal][βAla]SCWQC[AEF][2Nal][αMeL]E[dR]-NH2; linker 4-7 via CH2COCH2; lactam N-11) | 103 | – | – | – |
| CC(C)C[C@]1(C)NC(=O)[C@H](Cc2ccc3ccccc3c2)NC(=O)[C@H](Cc2ccc(OCCN)cc2)NC(=O)[C@@H]2CSCC(=O)CSC[C@H](NC(=O)[C@H](CO)NC(=O)Cc3ccc(cc3)CNC(=O)CC[C@@H](C(=O)N[C@H](CCCNC(=N)N)C(N)=O)NC1=O)C(=O)N[C@@H](Cc1c[nH]c3ccccc13)C(=O)N[C@@H](CCC(N)=O)C(=O)N2 [Ref 80, [4-Aminomethyl-phenylacetyl](1c)*SC(2a)WQC(2a)[Y(2-aminoethoxy)][2-Nal][2-Me-Leu]E(1c)[{d}R]-[NH2], reference compound] ([X1]SCWQC[AEF][2Nal][αMeL]E[dR]-NH2; linker 3-6 via CH2COCH2; lactam N-10) | – | 11 | 97 | – |
| CNC(=O)[C@H](Cc1cccnc1)NC(=O)[C@H](CCN)NC(=O)[C@@H]1CCC(=O)NCc2ccc(cc2)CC(=O)N(C)[C@@H](C)C(=O)N[C@H]2CCC(=O)NCC[C@H](NC(=O)[C@H](CCC(N)=O)NC(=O)[C@H](Cc3c[nH]c4ccccc34)NC2=O)C(=O)N[C@@H](Cc2ccc(OCCN)cc2)C(=O)N[C@@H](Cc2ccc3ccccc3c2)C(=O)NC(C)(C)C(=O)N1 [Compound 48, [4-aminomethyl-phenylacetyl(1c)*][N—Me-Ala]E(2c)WQ[Dab](2c)[Y(2-aminoethoxy)][2Nal][Aib]E(1c)[Dab][3-(3-Pyridyl)-alanyl]-[NHMe]] ([X1][NMeA]EWQ[Dab][AEF][2Nal][Aib]E[Dab][3Pal]-NHMe; lactam 3-6, N-10) | 96 | – | – | 0.01 |
| CC(C)C[C@]1(C)NC(=O)[C@H](Cc2ccc3ccccc3c2)NC(=O)[C@H](Cc2ccc(OCCN)cc2)NC(=O)[C@@H]2CSCC(=O)CSC[C@H](NC(=O)[C@H](CO)NC(=O)[C@H](Cc3cccnc3)NC(=O)CCNC(=O)CC[C@@H](C(=O)N[C@H](CCCNC(=N)N)C(N)=O)NC1=O)C(=O)N[C@@H](Cc1c[nH]c3ccccc13)C(=O)N[C@@H](CCC(N)=O)C(=O)N2 [Compound 1, [3-Aminopropanoyl](4c)*[3-(3-Pyridyl)-Ala]SC(2a)WQC(2a)[Y(2-aminoethoxy)][2-Nal][2-Me-Leu]E(4c)[{d}R]-[NH2]] ([βAla][3Pal]SCWQC[AEF][2Nal][αMeL]E[dR]-NH2; linker 4-7 via CH2COCH2; lactam N-11) | 105 | – | – | – |
| CC(=O)N[C@H]1CCSC[C@@H](C(=O)N[C@@H](Cc2ccc(OCCN)cc2)C(=O)N[C@@H](Cc2c[nH]c3ccccc23)C(=O)N[C@@](C)(CCCCN)C(=O)N[C@@H](CCC(=O)O)C(=O)N[C@@H](CC(N)=O)C(=O)NCC(N)=O)NC(=O)[C@H](CCC(N)=O)NC(=O)[C@H](Cc2c[nH]c3ccccc23)NC(=O)[C@H]([C@@H](C)O)NC(=O)[C@H](CCC(N)=O)NC1=O [Compound C, [Ac]-[Abu](16i)QTWQC(16i)[Y(2-aminoethoxy)]W[2-Me-Lys]ENG-[NH2], reference compound] | 102 | – | – | – |
| CC(=O)N[C@@H](CC(=O)O)C(=O)N[C@H]1CCC(=O)NCCCC[C@@H](C(=O)N[C@@H](CCCNC(=N)N)C(N)=O)NC(=O)[C@H](CC(C)C)NC(=O)[C@H](Cc2ccc3ccccc3c2)NC(=O)[C@H](Cc2c[nH]c3ccccc23)NC(=O)[C@@H]2CSCC(=O)CSC[C@H](NC(=O)[C@H](CO)NC1=O)C(=O)N[C@@H](Cc1c[nH]c3ccccc13)C(=O)N[C@@H](CCC(N)=O)C(=O)N2 [Ref 17, [Ac]-DE(1c)SC(2a)WQC(2a)W[2-Nal]LK(1c)R-[NH2], reference compound] | – | 370 | – | – |
